These results are taken from ChEMBL document CHEMBL1201862, “PubChem BioAssay data set” (2004).

The source made the active and inactive calls. For most assays here, no stated cut-off is given here; in the data, actives have a measured EC50 and inactives only a lower limit.

One experiment deals with Cytochrome P450 2D6 (Homo sapiens, UniProt P10635).
The next experiment deals with T1, Protein RecA (Mycobacterium tuberculosis, UniProt P9WHJ3).
T1 sequence (P9WHJ3 whole entry): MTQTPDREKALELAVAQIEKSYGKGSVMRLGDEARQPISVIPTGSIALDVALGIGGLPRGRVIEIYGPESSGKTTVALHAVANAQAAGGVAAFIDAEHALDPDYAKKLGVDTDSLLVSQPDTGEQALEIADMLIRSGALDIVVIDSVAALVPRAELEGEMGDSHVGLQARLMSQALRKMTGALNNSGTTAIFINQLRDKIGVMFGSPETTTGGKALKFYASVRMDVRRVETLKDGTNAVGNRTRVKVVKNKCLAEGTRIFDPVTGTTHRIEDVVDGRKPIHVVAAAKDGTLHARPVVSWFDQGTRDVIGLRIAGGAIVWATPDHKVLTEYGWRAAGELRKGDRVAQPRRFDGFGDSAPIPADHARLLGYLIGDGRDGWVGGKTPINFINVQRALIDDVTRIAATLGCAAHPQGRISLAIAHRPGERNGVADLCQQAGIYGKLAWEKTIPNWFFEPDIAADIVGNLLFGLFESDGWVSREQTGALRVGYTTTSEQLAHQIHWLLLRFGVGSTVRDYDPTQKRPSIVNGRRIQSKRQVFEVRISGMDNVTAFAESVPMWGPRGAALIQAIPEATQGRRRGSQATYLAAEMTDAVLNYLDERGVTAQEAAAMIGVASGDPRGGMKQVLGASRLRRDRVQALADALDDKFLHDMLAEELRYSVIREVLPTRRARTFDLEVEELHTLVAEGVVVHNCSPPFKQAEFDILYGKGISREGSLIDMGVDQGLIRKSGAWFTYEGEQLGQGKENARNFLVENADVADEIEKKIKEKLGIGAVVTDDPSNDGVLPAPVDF
As to the kind of experiment: Fluorescence Cell-Free Homogeneous Dose Retest to Identify Inhibitors of RecA-Intein Splicing Activity. [Related pubchem assays (depositor defined):AID2097, AID2223, AID489010, AID492950]. The format is functional.

The target of experiment [1] is T2, Replicative DNA helicase DnaB (Mycobacterium tuberculosis, UniProt P9WMR3).
T2 sequence (P9WMR3 whole entry): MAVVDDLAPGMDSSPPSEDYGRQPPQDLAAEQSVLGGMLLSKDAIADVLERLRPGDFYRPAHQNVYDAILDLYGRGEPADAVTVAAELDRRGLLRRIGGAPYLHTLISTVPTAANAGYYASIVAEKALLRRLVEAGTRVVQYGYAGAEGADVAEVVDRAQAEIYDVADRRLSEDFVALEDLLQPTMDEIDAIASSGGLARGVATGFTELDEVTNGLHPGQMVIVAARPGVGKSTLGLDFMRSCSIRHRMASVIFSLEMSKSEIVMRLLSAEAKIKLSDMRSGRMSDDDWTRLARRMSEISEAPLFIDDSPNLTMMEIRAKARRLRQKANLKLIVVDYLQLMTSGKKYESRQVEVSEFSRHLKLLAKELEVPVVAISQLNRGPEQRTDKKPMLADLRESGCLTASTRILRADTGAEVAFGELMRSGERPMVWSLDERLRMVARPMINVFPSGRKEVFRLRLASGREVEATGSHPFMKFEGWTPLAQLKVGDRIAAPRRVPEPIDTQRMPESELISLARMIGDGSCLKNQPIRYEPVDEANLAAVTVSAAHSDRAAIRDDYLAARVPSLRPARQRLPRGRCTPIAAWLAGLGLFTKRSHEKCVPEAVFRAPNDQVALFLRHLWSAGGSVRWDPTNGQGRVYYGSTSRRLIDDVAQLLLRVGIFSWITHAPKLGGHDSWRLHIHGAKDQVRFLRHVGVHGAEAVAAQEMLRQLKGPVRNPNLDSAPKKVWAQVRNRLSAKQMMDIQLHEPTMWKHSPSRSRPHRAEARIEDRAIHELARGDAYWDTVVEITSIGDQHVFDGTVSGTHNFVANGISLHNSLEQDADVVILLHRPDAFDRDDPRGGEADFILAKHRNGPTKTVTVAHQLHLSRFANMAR
The experiment in a line: DnaB intein splicing inhibitors, dose response, biochemical, cell-free fluorescence (AID 449749). In kind it is functional.

Experiment [2] can be described thus: Luminescence Cell-Based Dose Retest to Confirm Inhibitors of Cancer Stem Cells. [Related pubchem assays (depositor defined):AID2717, AID2721]. In kind it is functional. The settings on record: Homo sapiens.
In experiment [3] the target is T3, Corticotropin-releasing factor receptor 2/Corticotropin-releasing factor-binding protein (Homo sapiens, UniProt P24387+Q13324).
T3 sequence (Q13324 whole entry): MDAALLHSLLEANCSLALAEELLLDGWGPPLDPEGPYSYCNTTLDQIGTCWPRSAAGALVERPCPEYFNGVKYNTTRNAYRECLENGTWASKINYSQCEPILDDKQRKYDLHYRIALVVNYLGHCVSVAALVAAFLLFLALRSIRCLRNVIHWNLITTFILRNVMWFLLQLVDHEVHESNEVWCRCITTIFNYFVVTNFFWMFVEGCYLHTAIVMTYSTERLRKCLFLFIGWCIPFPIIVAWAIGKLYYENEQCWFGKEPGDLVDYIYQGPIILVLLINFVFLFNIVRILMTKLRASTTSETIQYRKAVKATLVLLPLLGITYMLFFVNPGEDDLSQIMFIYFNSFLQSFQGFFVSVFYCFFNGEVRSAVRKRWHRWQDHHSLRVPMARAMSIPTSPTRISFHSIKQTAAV
T3 sequence (P24387 whole entry): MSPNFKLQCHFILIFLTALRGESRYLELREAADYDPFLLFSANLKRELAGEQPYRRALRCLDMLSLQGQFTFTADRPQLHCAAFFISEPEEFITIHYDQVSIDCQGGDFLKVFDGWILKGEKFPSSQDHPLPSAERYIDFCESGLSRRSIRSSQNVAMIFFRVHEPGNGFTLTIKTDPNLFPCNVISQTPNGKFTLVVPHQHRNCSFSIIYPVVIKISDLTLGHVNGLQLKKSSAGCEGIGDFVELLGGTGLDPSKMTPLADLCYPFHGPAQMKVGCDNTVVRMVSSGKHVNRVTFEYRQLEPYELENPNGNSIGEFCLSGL
As to the kind of experiment: Dose Response confirmation of uHTS hits for small molecule antagonists of the CRF-binding protein and CRF-R2 receptor complex. The settings on record: read-out: IC50_Mean. In kind it is functional.

For experiment [4], the target named is T3, Corticotropin-releasing factor receptor 2/Corticotropin-releasing factor-binding protein. The experiment in a line: activators of CRF receptor 2 with binding protein – uHTS hits, confirmation (AID 602473). The format is functional. The settings on record: read-out: EC50_Mean.
A further experiment deals with INS1. The experiment in a line: beta cell apoptosis inhibitors, cytokine rescue, dose response, luminescence, retest (AID 449756).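 Further: cell death triggered by IL-1 beta plus TNF-alpha plus IFN-gamma mixture; protective hits raise ATP signal compared with cytokine alone wells.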 In kind it is functional, cell-based. The settings on record: Rattus norvegicus.
Experiment [5] relates to Streptococcus sp. 'group A'. The experiment in a line: growth inhibition of control SK(-) GAS strain, dose response, counter-screen for streptokinase expression inhibitor project, luminescence, kanamycin, BacTiterGlo, confirmation (AID 1900). The format is functional, organism-based.
The next experiment has as its system Streptococcus. As to the kind of experiment: Group A Streptococcus viability loss, dose response, counter-screen for streptokinase expression inhibitor project, luminescence, BacTiterGlo (AID 1915).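 Further: potency for reduction of bacterial viability or growth.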 In kind it is functional, organism-based. On the technique in general: A counterscreen serves to expose hits that act by an unwanted route or on another target.
Experiment [6] can be described thus: Luminescence Cell-Based Dose Confirmation HTS to Identify Inhibitors of Platelet Dense Granule Release. [Related pubchem assays: 1663 (Primary HTS), 1678 (Summary of Project)]. The format is functional.
The target of experiment [7] is Luciferin 4-monooxygenase (Photinus pyralis, UniProt P08659). The experiment in a line: firefly luciferase enzyme inhibitors, dose response, biochemical, luminescence (AID 1891).
The nature of experiment [8]: cytotoxicity toward NIH3T3 fibroblasts, dose response, counter-screen, cell-based, ATP luminescence, mouse fibroblasts (AID 2010).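 Further: cells exposed to compound for about 90 hours before reading.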 In kind it is functional.
The nature of experiment [9]: inhibitors of intracellular T. cruzi replication, confirmation, NIH3T3 host cells, beta-gal luminescence (AID 2044).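 Further: intracellular parasites grown in NIH/3T3 mouse fibroblasts as host cells; luminescent beta-galactosidase reporter signal from transgenic T. cruzi replicating inside host cells; inhibitors lower the luminescence signal.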 In kind it is functional, cell-based.
The nature of experiment [10]: growth suppression of PTEN-null colon cells, dose response, cell-based, HCT116 PTEN knockout (AID 1047).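 Further: HCT116 colon tumor cells with PTEN knocked out; cells exposed to compound for 60 hours before readout; potency for loss of cell viability measured by luminescence.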 In kind it is functional.
Experiment [11] can be described thus: Luminescence Cell-Based Dose Response HTS to Identify Inhibitors of 5'UTR Stem-Loop Driven Prion Protein mRNA Translation in H4 Neuroglioblastoma Cells. [Related pubchem assays: 1827 (Project Summary), 1813 (Primary HTS)]. The format is functional.
Experiment [12] in a line: inhibitors of firefly luciferase expression or activity, dose response, H4 neuroglioma cells, luminescence (AID 1990). In kind it is functional, cell-based.
The nature of experiment [13]: inhibitors of SNCA 5'UTR-driven reporter translation, confirmation, H4 neuroglioma cells, luminescence (AID 1988). The format is functional, cell-based.
Experiment [14] in a line: Luminescence Cell-Based Dose Response HTS to Identify Activators of Luciferase Translation or Activity in H4 […] Cells. [Related pubchem assays: 1829 (Project Summary), 1814 (Primary HTS)]. In kind it is functional.
Another experiment concerns H4. The experiment in a line: Luminescence Cell-Based Dose Response HTS to Identify Activators of 5'UTR Stem-Loop Driven Prion Protein mRNA Translation in H4 Neuroglioblastoma Cells. [Related pubchem assays: 1829 (Project Summary), 1814 (Primary HTS)]. The format is functional. The settings on record: Homo sapiens.

Sequence of Luciferin 4-monooxygenase (P08659 whole entry): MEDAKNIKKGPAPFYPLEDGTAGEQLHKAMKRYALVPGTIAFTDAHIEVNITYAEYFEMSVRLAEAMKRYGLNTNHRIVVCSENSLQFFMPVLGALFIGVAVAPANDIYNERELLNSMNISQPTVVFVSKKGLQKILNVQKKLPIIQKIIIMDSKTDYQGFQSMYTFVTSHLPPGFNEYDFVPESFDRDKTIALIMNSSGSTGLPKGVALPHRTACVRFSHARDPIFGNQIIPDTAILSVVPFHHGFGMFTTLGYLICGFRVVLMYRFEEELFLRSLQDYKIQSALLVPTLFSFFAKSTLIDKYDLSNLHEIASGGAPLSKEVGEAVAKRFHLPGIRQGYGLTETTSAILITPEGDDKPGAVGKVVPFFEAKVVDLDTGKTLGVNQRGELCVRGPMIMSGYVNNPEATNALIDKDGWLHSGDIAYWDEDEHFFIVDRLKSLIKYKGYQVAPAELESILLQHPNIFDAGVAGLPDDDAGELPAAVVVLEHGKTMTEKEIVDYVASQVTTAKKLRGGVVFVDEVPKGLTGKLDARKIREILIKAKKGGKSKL
Sequence of Cytochrome P450 2D6 (P10635 whole entry): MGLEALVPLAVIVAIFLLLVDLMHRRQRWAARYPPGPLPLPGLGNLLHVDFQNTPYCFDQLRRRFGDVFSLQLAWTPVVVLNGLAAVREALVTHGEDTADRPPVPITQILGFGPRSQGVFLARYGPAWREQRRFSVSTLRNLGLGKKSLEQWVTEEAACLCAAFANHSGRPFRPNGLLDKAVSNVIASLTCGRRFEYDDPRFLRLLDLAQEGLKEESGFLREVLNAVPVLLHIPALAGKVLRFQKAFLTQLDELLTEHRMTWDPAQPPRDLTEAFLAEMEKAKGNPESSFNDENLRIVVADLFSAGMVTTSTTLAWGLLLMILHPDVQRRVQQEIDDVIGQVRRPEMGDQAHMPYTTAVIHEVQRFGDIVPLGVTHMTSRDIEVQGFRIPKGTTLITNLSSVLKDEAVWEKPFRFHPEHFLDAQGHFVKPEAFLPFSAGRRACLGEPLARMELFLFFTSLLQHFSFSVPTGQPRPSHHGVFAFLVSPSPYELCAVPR

In general, AC50 refers to the concentration at which the activity in the assay is half-maximal. As for `CCCc1c(-c2ccc(O)cc2)nn(-c2ccc(O)cc2)c1-c1ccc(O)cc1` [PROPYLPYRAZOLETRIOL], the results for the AC50 (at Cytochrome P450 2D6; in experiment [1]; in experiment [2]) were 12.6 µM (inconclusive), 2.92 µM (active) and 3.78 µM (active), respectively. Moreover, on Protein RecA, the EC50 is 4.88 µM (active).
With `COc1cccc(C2CCCN2Cc2nc(-c3cnccn3)no2)c1` (stereo not drawn), the IC50 in experiment [3] was > 47.1 µM (inactive). Besides, in experiment [4], the EC50 was > 53 µM (inactive).
As for `O=C1/C(=C/c2cccc([N+](=O)[O-])c2)CCc2ccccc21`, on Protein RecA, the EC50 is 13.3 µM (active). Further, the AC50 in experiment [1] was 8.57 µM (active).
`Cc1cccc(-n2c(C)cc(/C=N/n3cnnc3)c2C)c1`: the AC50 in the experiment with INS1 was 14.1 µM (active).
Take `Cc1n[nH]c2c1C(c1cccs1)C(C#N)=C(N)O2` (stereo not drawn): on Protein RecA, the EC50 was 4.74 µM (active). Further, the AC50 in experiment [1] was 24.7 µM (active).
Regarding `COc1cc(C(C(=O)NC2CCCCC2)N(CCN2CCOCC2)C(=O)C2COc3ccccc3O2)cc(OC)c1OC` (stereo not drawn), the EC50 on Protein RecA is > 380 µM (inactive). The AC50 in experiment [1] is > 380 µM (inactive).
For the compound `Cc1ccc(CCNC(=O)C2CCC(=O)N2C2CCCC2)cc1` (stereo not drawn), the IC50 in experiment [3] is > 47.1 µM (inactive). In addition, the EC50 in experiment [4] was > 53 µM (inactive).
Take `Cc1ccc(-c2nn(-c3ccccc3)cc2/C=N/NC(=O)c2ccc3c(c2)OCO3)cc1`: the AC50 with INS1 was 5.54 µM (active).
In the case of `O=C(CNc1ccc(F)cc1)N/N=C/c1c(O)ccc2ccccc12`, the AC50 with INS1 was 2.94 µM (active). The EC50 was 0.846 µM (active) in experiment [5] and 1.67 µM (active) in the experiment on Streptococcus.
Consider `CCOC(=O)c1c(CCl)nc2ccccc2c1-c1ccccc1`, for which the EC50 on Protein RecA was 12.6 µM (active). In addition, in [1], the AC50 is 9.56 µM (active).
As for `COc1cc(CNc2ccccc2SC)ccc1O`, the IC50 in experiment [3] was > 47.1 µM (inactive). Besides, the EC50 in experiment [4] is > 53 µM (inactive); in [6], > 112 µM (not active); in experiment [7], > 112 µM (not active).
On to `NNC(=S)NC1CCS(=O)(=O)C1` (stereo not drawn), for which, in experiment [3], the IC50 was > 47.1 µM (inactive). Moreover, the EC50 in experiment [4] was > 53 µM (inactive).
On the same counts, the results for `O=C(Nc1ccccc1SCC1CSc2nc3ccccc3c(=O)n21)c1ccccc1` (stereo not drawn) are > 47.1 µM (inactive) and > 53 µM (inactive).
On to `O=S1(=O)CCN(Cc2csc(-c3cccs3)n2)CC1`, for which the AC50 with INS1 was 145 µM (active). The results for the EC50 in experiment [6] and in [7] were 17.9 µM (active) and > 112 µM (not active), respectively.
For the compound `CC1CCCCC1NC(=O)NC(=O)CCl` (stereo not drawn), the EC50 on Protein RecA is 12.3 µM (active). For the same compound, in [1], the AC50 is 22.5 µM (active).
In the case of `C=C[C@H](Cc1ccccc1)N(Cc1ccccc1)S(=O)(=O)N(Cc1ccccc1)[C@H](C=C)Cc1ccccc1`, in the experiment with INS1, the AC50 was 4.47 µM (active).
Take `Cc1ccccc1OCC(=O)OCC(=O)c1c[nH]c2ccccc12`: the IC50 in [3] was > 47.1 µM (inactive). In addition, the EC50 in experiment [4] is > 53 µM (inactive).
`CCCN(CCC)C(=O)c1cc([N+](=O)[O-])cc2c1-c1ccc([N+](=O)[O-])cc1C2=C(C#N)C#N`: the EC50 in experiment [8] is 10.7 µM (active); in [9] it was 1.62 µM (active). Also, in the experiment on INS1, the AC50 was 6.7 µM (active).
With `Cc1n[nH]c2c1C(C1CC=CCC1)C(C#N)=C(N)O2` (stereo not drawn), the EC50 in [10] is 34.7 µM (active).
Take `COC(=O)c1ccccc1NC(=O)C(C)n1nc(C)c2c(C)n(-c3ccccc3)nc2c1=O` (stereo not drawn): the EC50 in experiment [11] is 20.1 µM (active); in experiment [12] it was 25.5 µM (active); on Protein RecA it was > 380 µM (inactive); in experiment [13] it was 22.9 µM (active). Also, in experiment [1], the AC50 was 208 µM (active).
`Cc1csc(NC(=O)c2nc3nccc(C)n3n2)n1`: the EC50 was 36.1 µM (active) in experiment [14] and 37.4 µM (active) with H4.
